According to PubChem BioAssay AID1259407 (Chemical Carcinogenesis Research Information System (CCRIS), 2018):
Activity calls are given as the source filed them. No rule for the calls is given here.

Test system: CCRIS mutagenicity, Ames/micronucleus/aberration tests
Experiment: CCRIS mutagenicity studies

Nc1ccc2cc3ccc(N)cc3nc2c1
mutagenic call (Test System: AMES SALMONELLA TYPHIMURIUM, Strain/Indicator: TA98, Metabolic Activation: HAMSTER, LIVER, S-9, AROCLOR 1254, Method: STANDARD PLATE): active; positive | mutagenic call (Test System: AMES SALMONELLA TYPHIMURIUM, Strain/Indicator: TA98, Metabolic Activation: HAMSTER, LIVER, S-9, Method: STANDARD PLATE): active; positive | mutagenic call (Test System: AMES SALMONELLA TYPHIMURIUM, Strain/Indicator: TA98, Metabolic Activation: MOUSE, LIVER, S-9, AROCLOR 1254, Method: STANDARD PLATE): active; positive | mutagenic call (Test System: AMES SALMONELLA TYPHIMURIUM, Strain/Indicator: TA98, Metabolic Activation: MOUSE, LIVER, S-9, Method: STANDARD PLATE): active; positive | mutagenic call (Test System: AMES SALMONELLA TYPHIMURIUM, Strain/Indicator: TA98, Metabolic Activation: NONE, Method: FLUCTUATION (MICROTITER)): active; positive | mutagenic call (Test System: AMES SALMONELLA TYPHIMURIUM, Strain/Indicator: TA98, Metabolic Activation: RAT, LIVER, S-9, AROCLOR 1254, Method: STANDARD PLATE): active; positive | mutagenic call (Test System: AMES SALMONELLA TYPHIMURIUM, Strain/Indicator: TA98, Metabolic Activation: RAT, LIVER, S-9, Method: STANDARD PLATE): active; positive | mutagenic call (Test System: AMES SALMONELLA TYPHIMURIUM, Strain/Indicator: TA100, Metabolic Activation: NONE, Method: STANDARD PLATE): inactive; negative | mutagenic call (Test System: AMES SALMONELLA TYPHIMURIUM, Strain/Indicator: TA100, Metabolic Activation: RAT, LIVER, S-9, AROCLOR 1254, Method: STANDARD PLATE): active; positive | mutagenic call (Test System: AMES SALMONELLA TYPHIMURIUM, Strain/Indicator: TA100, Metabolic Activation: RAT, LIVER, S-9, Method: STANDARD PLATE): inactive; negative | mutagenic call (Test System: AMES SALMONELLA TYPHIMURIUM, Strain/Indicator: TA1535, Metabolic Activation: MOUSE, LIVER, S-9, AROCLOR 1254, Method: STANDARD PLATE): inactive; negative | mutagenic call (Test System: AMES SALMONELLA TYPHIMURIUM, Strain/Indicator: TA1535, Metabolic Activation: NONE, Method: PREINCUBATION): inactive; negative | mutagenic call (Test System: AMES SALMONELLA TYPHIMURIUM, Strain/Indicator: TA1535, Metabolic Activation: NONE, Method: STANDARD PLATE): inactive; negative | mutagenic call (Test System: AMES SALMONELLA TYPHIMURIUM, Strain/Indicator: TA1535, Metabolic Activation: RAT, LIVER, S-9, AROCLOR 1254, Method: STANDARD PLATE): inactive; negative | mutagenic call (Test System: AMES SALMONELLA TYPHIMURIUM, Strain/Indicator: TA1535, Metabolic Activation: RAT, LIVER, S-9, TETRACHLOROBIPHENYL, Method: PREINCUBATION): inactive; negative | mutagenic call (Test System: AMES SALMONELLA TYPHIMURIUM, Strain/Indicator: TA1535, Metabolic Activation: RAT, LIVER, S-9, Method: STANDARD PLATE): inactive; negative | mutagenic call (Test System: AMES SALMONELLA TYPHIMURIUM, Strain/Indicator: TA1537, Metabolic Activation: HAMSTER, LIVER, S-9, AROCLOR 1254, Method: STANDARD PLATE): active; positive | mutagenic call (Test System: AMES SALMONELLA TYPHIMURIUM, Strain/Indicator: TA1537, Metabolic Activation: HAMSTER, LIVER, S-9, Method: STANDARD PLATE): active; positive | mutagenic call (Test System: AMES SALMONELLA TYPHIMURIUM, Strain/Indicator: TA1537, Metabolic Activation: MOUSE, LIVER, S-9, AROCLOR 1254, Method: STANDARD PLATE): active; positive | mutagenic call (Test System: AMES SALMONELLA TYPHIMURIUM, Strain/Indicator: TA1537, Metabolic Activation: MOUSE, LIVER, S-9, Method: STANDARD PLATE): active; positive | mutagenic call (Test System: AMES SALMONELLA TYPHIMURIUM, Strain/Indicator: TA1537, Metabolic Activation: NONE, Method: FLUCTUATION (MICROTITER)): active; positive | mutagenic call (Test System: AMES SALMONELLA TYPHIMURIUM, Strain/Indicator: TA1537, Metabolic Activation: NONE, Method: PREINCUBATION): active; positive | mutagenic call (Test System: AMES SALMONELLA TYPHIMURIUM, Strain/Indicator: TA1537, Metabolic Activation: RAT, LIVER, S-9, AROCLOR 1254, Method: STANDARD PLATE): active; positive | mutagenic call (Test System: AMES SALMONELLA TYPHIMURIUM, Strain/Indicator: TA1537, Metabolic Activation: RAT, LIVER, S-9, TETRACHLOROBIPHENYL, Method: PREINCUBATION): active; positive | mutagenic call (Test System: AMES SALMONELLA TYPHIMURIUM, Strain/Indicator: TA1537, Metabolic Activation: RAT, LIVER, S-9, Method: STANDARD PLATE): active; positive | mutagenic call (Test System: AMES SALMONELLA TYPHIMURIUM, Strain/Indicator: TA1538, Metabolic Activation: HAMSTER, LIVER, S-9, AROCLOR 1254, Method: STANDARD PLATE): active; positive | mutagenic call (Test System: AMES SALMONELLA TYPHIMURIUM, Strain/Indicator: TA1538, Metabolic Activation: HAMSTER, LIVER, S-9, Method: STANDARD PLATE): active; positive | mutagenic call (Test System: AMES SALMONELLA TYPHIMURIUM, Strain/Indicator: TA1538, Metabolic Activation: MOUSE, LIVER, S-9, AROCLOR 1254, Method: STANDARD PLATE): active; positive | mutagenic call (Test System: AMES SALMONELLA TYPHIMURIUM, Strain/Indicator: TA1538, Metabolic Activation: MOUSE, LIVER, S-9, Method: STANDARD PLATE): active; positive | mutagenic call (Test System: AMES SALMONELLA TYPHIMURIUM, Strain/Indicator: TA1538, Metabolic Activation: NONE, Method: PREINCUBATION): inactive; negative | mutagenic call (Test System: AMES SALMONELLA TYPHIMURIUM, Strain/Indicator: TA1538, Metabolic Activation: RAT, LIVER, S-9, AROCLOR 1254, Method: STANDARD PLATE): active; positive | mutagenic call (Test System: AMES SALMONELLA TYPHIMURIUM, Strain/Indicator: TA1538, Metabolic Activation: RAT, LIVER, S-9, TETRACHLOROBIPHENYL, Method: PREINCUBATION): active; positive | mutagenic call (Test System: AMES SALMONELLA TYPHIMURIUM, Strain/Indicator: TA1538, Metabolic Activation: RAT, LIVER, S-9, Method: STANDARD PLATE): active; positive | mutagenic call (Test System: AMES SALMONELLA TYPHIMURIUM, Strain/Indicator: TA1977, Metabolic Activation: NONE, Method: PREINCUBATION): active; positive | mutagenic call (Test System: AMES SALMONELLA TYPHIMURIUM, Strain/Indicator: TA1977, Metabolic Activation: RAT, LIVER, S-9, TETRACHLOROBIPHENYL, Method: PREINCUBATION): active; positive | mutagenic call (Test System: AMES SALMONELLA TYPHIMURIUM, Strain/Indicator: TA1978, Metabolic Activation: RAT, LIVER, S-9, TETRACHLOROBIPHENYL, Method: PREINCUBATION): active; positive | mutagenic call (Test System: AMES SALMONELLA TYPHIMURIUM, Strain/Indicator: TA7001, Metabolic Activation: NONE, Method: FLUCTUATION (MICROTITER)): inactive; negative | mutagenic call (Test System: AMES SALMONELLA TYPHIMURIUM, Strain/Indicator: TA7002, Metabolic Activation: NONE, Method: FLUCTUATION (MICROTITER)): inactive; negative | mutagenic call (Test System: AMES SALMONELLA TYPHIMURIUM, Strain/Indicator: TA7003, Metabolic Activation: NONE, Method: FLUCTUATION (MICROTITER)): inactive; negative | mutagenic call (Test System: AMES SALMONELLA TYPHIMURIUM, Strain/Indicator: TA7004, Metabolic Activation: NONE, Method: FLUCTUATION (MICROTITER)): inactive; negative | mutagenic call (Test System: AMES SALMONELLA TYPHIMURIUM, Strain/Indicator: TA7005, Metabolic Activation: NONE, Method: FLUCTUATION (MICROTITER)): active; positive | mutagenic call (Test System: AMES SALMONELLA TYPHIMURIUM, Strain/Indicator: TA7006, Metabolic Activation: NONE, Method: FLUCTUATION (MICROTITER)): inactive; negative | mutagenic call (Test System: CHINESE HAMSTER OVARY, Strain/Indicator: CHO-K1-BH4 (HGPRT)/6-THIOGUANINE, Metabolic Activation: NONE, Method: SUSPENSION/PLATE): active; positive | mutagenic call (Test System: CHINESE HAMSTER V-79, Strain/Indicator: V-79/6-THIOGUANINE, Metabolic Activation: NONE, Method: FLASK ASSAY): active; positive | mutagenic call (Test System: E. COLI, Strain/Indicator: WP2 UVRA, Metabolic Activation: HAMSTER, LIVER, S-9, AROCLOR 1254, Method: STANDARD PLATE): inactive; negative | mutagenic call (Test System: E. COLI, Strain/Indicator: WP2 UVRA, Metabolic Activation: HAMSTER, LIVER, S-9, Method: STANDARD PLATE): inactive; negative | mutagenic call (Test System: E. COLI, Strain/Indicator: WP2 UVRA, Metabolic Activation: MOUSE, LIVER, S-9, Method: STANDARD PLATE): inactive; negative | mutagenic call (Test System: E. COLI, Strain/Indicator: WP2 UVRA, Metabolic Activation: NONE, Method: STANDARD PLATE): inactive; negative | mutagenic call (Test System: MOUSE LYMPHOMA, Strain/Indicator: L5178Y (TK+/TK-), Metabolic Activation: NONE, Method: SUSPENSION/PLATE): active; positive
